Results from patent EP0117412A1, “Propene derivatives and their use as plant growth inhibitors” (DAICEL CHEMICAL INDUSTRIES, LTD., priority 1983, dated 1984).

Tests used:
Assay in all cases: Test of plant growth inhibiting action on sprouted seeds grown 7 days in a dispersion of wettable powder, visual evaluation
Assay type in all cases: in vivo
Echinochloa crus-galli = details: 168 h, 20% wettable powder dispersed in water, 25°C, lighted thermostat, visual grade 1-5, read-out: Growth Inhibition, Seed of Plant Echinochloa crus-galli (converted); for inhibition at 20 ppm: Concentration 20 ppm; for inhibition at 100 ppm: Concentration 100 ppm
Description: (§1) Test Example (Test of Plant Growth Inhibiting Action)
(§2) 50 parts of talc, 25 parts of bentonite, 2 parts of Sorpol-9047 (surface active agent manufactured by Toho Chemical Co., Ltd.) and 3 parts of Sorpol-5039 (same as above) were thoroughly mixed to form a carrier. 50 weight parts of test compound was mixed with 200 weight parts of the carrier to prepare a 20% wettable powder. The wettable powder was dispersed in pure water to adjust the amount thereof to a definite concentration (see Table If to 17). Seeds of Oryza sativa or rice plant, Echinochloa crus-galli (a kind of millet) and Raphanus sativus (a kind of radish) all of which were forcedly sprouted in a separate dish, were put in the dispersion of wettable powder and grown for 7 days in a lighted thermostat at 25°C and the degree of growth was visually evaluated in accordance with the standard set forth below.
(§3) Standard of Evaluation in Growth Inhibition
(§4) • no influence: 1 • about 25% growth inhibition: 2 • about 50% growth inhibition: 3 • about 75% growth inhibition: 4 • about 100% growth inhibition: 5

Oryza sativa = details: 168 h, 20% wettable powder dispersed in water, 25°C, lighted thermostat, visual grade 1-5, read-out: Growth Inhibition, Seed of Plant Oryza sativa (converted); for inhibition at 20 ppm: Concentration 20 ppm; for inhibition at 100 ppm: Concentration 100 ppm
Description: as §1, §2, §3, §4

Raphanus sativus = details: 168 h, 20% wettable powder dispersed in water, 25°C, lighted thermostat, visual grade 1-5, read-out: Growth Inhibition, Seed of Plant Raphanus sativus (converted); for inhibition at 20 ppm: Concentration 20 ppm; for inhibition at 100 ppm: Concentration 100 ppm
Description: as §1, §2, §3, §4

Row | Structure (SMILES) | inhibition at 20 ppm (Echinochloa crus-galli) [%] | inhibition at 100 ppm (Echinochloa crus-galli) [%] | inhibition at 20 ppm (Oryza sativa) [%] | inhibition at 100 ppm (Oryza sativa) [%] | inhibition at 20 ppm (Raphanus sativus) [%] | inhibition at 100 ppm (Raphanus sativus) [%]
1 | C=C(COc1ccc2c(C)cc(=O)oc2c1)C(=O)OC [Compound 4-25] | 75 | 100 | 25 | 100 | 0 | 25
2 | C=C(COc1ccc(C#N)cc1)C(=O)OC [Compound 4-22] | 100 | 100 | 100 | 100 | 50 | 100
3 | C=C(COc1cccc2ncccc12)C(=O)OC [Compound 4-27] | 100 | 100 | 75 | 100 | 0 | 50
4 | C=C(COc1ccccc1)C(=O)OC [Compound 4-10, methyl 2-methylene-3-phenoxypropionate] | 100 | 100 | 75 | 100 | 0 | 100
5 | C=C(CSCc1ccc(Cl)cc1)C(=O)OC [Compound 4-9] | 100 | 100 | 100 | 100 | 0 | 50
6 | C=C(CSC1CCCCC1)C(=O)OC [Compound 4-7] | 75 | 100 | 0 | 100 | 0 | 0
7 | C=C(CON(CC)CC)C(=O)OC [Compound 4-26] | 0 | 25 | 0 | 50 | 0 | 0
8 | C=C(CSc1ccccn1)C(=O)OC [Compound 4-8] | 0 | 25 | 0 | 50 | 0 | 0
9 | C=C(COc1ccc(OC)cc1)C(=O)OC [Compound 4-20] | 100 | 100 | 100 | 100 | 0 | 0
10 | C=C(COc1ccc(Cl)cc1C)C(=O)OC [Compound 4-11] | 100 | 100 | 75 | 100 | 0 | 25
11 | C=C(COc1ccc(F)cc1)C(=O)OC [Compound 4-15, methyl 2-methylene-3-(4-fluorophenoxy)propionate] | 75 | 100 | 50 | 100 | 0 | 50
12 | C=C(COc1cccc(C)c1)C(=O)OC [Compound 4-16] | 100 | 100 | 75 | 100 | 0 | 25
13 | C=C(CSc1ccc2ccccc2c1)C(=O)OC [Compound 4-5] | 100 | 100 | 75 | 100 | 0 | 0
14 | C=C(COc1ccc(C(F)(F)F)cc1)C(=O)OC [Compound 4-21] | 0 | 100 | 0 | 100 | 25 | 25
15 | C=C(COc1ccc(-c2ccccc2)cc1)C(=O)OC [Compound 4-13] | 25 | 25 | 0 | 0 | 0 | 0
16 | C=C(COc1ccc(C=Cc2ccccc2)cc1)C(=O)OC [Compound 4-28] | 75 | 75 | 25 | 25 | 0 | 0
17 | C=C(CSc1ccc(OC)cc1)C(=O)OC [Compound 4-4] | 100 | 100 | 100 | 100 | 0 | 25
18 | C=C(COc1ccc(C)cc1)C(=O)OC [Compound 4-18] | 100 | 100 | 75 | 100 | 25 | 100
19 | C=C(COc1ccc(Cl)cc1Cl)C(=O)OC [Compound 4-12] | 100 | 100 | 75 | 100 | 0 | 0
20 | C=C(COc1ccc(SC)cc1)C(=O)OC [Compound 4-19] | 100 | 100 | 100 | 100 | 0 | 50
21 | C=C(COc1cccc2c1CCCC2)C(=O)OC [Compound 4-17] | 100 | 100 | 75 | 100 | 0 | 0
22 | C=C(CSCc1ccccc1)C(=O)OC [Compound 4-6] | 100 | 100 | 100 | 100 | 0 | 25
23 | C=C(CSc1ccc(C)cc1)C(=O)OC [Compound 4-3] | 100 | 100 | 75 | 100 | 0 | 0
24 | C=C(CSc1ccccc1)C(=O)OC [Compound 4-1, methyl 2-methylene-3-(phenylthio)propionate] | 100 | 100 | 100 | 100 | 0 | 25
25 | C=C(COc1cccc(Cl)c1)C(=O)OC [Compound 4-14] | 100 | 100 | 100 | 100 | 25 | 75
26 | C=C(CSc1ccc(Cl)cc1)C(=O)OC [Compound 4-2, methyl 2-methylene-3-(4-chlorophenyl-thio)propionate] | 100 | 100 | 100 | 100 | 0 | 25
